Measurements reported in patent US10792301B2, “Therapeutic polysaccharide midi-GAGR and related materials and methods” (priority 2015, dated 2020).

How the values were obtained:
Type in all cases: cell-based
[1] = system: Differentiated dopaminergic PC12 cells; test: LIVE/DEAD viability of differentiated PC12 cells exposed to 6-OHDA; settings: 1 μM for 6 h, then 30 μM 6-OHDA for 24 h
Method: Differentiated dopaminergic PC12 cells and primary mouse embryonic cortical neurons (E17, DIV14) were treated with mock (H2O) or 1 μM of dextran, alginate, HA-GAGR or midi-GAGR for 6 h and insulated by oxidative stressors (30 μM 6-OHDA [PC12] and 10 μM amyloid β peptide [cortical neurons]) for 24 h.

[2] = system: phosphorylated CREB in differentiated PC12 cells; test: Nuclear p-CREB immunostaining in PC12 cells; settings: 1 μM, 24 h
Method: (§1) Differentiated PC12 cells and mouse embryonic cortical neurons (E17, DIV14) were treated with mock, dextran, alginate, HA-GAGR or midi-GAGR (1 μM) for 24 h and fixed in 3.7% paraformaldehyde. The fixed cells and neurons were immunostained with antibodies against α-tubulin and phosopho-CREB (p-CREB) along with DAPI (nucleus).

[3] = system: phosphorylated CREB in mouse embryonic cortical neurons; test: Nuclear p-CREB immunostaining in cortical neurons (Example 2); settings: 1 μM, 24 h
Method: as §1

[4] = system: Mouse cortical neurons (E17, DIV5); test: LIVE/DEAD assay, pre-treated mouse cortical neurons with 4HNE, H2O2 or Aβ42; settings: pre-treatment 24 h (1 μM midi-GAGR, dextran, alginate; 0.1 μM LA-GAGR; 0.01 μM HA-GAGR)
From the text: The protective effect of polysaccharides on primary cortical neurons from 4HNE, H2O2, and Aβ42 peptide (Sigma) was examined using LIVE/DEAD® Viability/Cytotoxicity Assay Kit (Life Technologies). Female pregnant mice (BALB/C, E17, Charles River Laboratories International, Inc.) or female pregnant SD rats (E17, bred in house) were anesthetized and dissected to obtain 8-9 embryos per animal. Cortical neurons were isolated from embryonic brains and differentiated on poly-L-lysine-coated coverslips in B27/neurobasal medium. For drug treatment before free radical treatment, mouse cortical neurons (5 days in vitro [DIV5.]) were treated with vehicle (H2O), 1 μM of 5 kD dextran (Sigma), alginate (Sigma), midi-GAGR, 0.01 μM of high acyl gellan gum (HA-GAGR, CPKelco Co.), or 0.1 μM of LA-GAGR for 24 h and then treated with 10 μM 4HNE or 50 μM H2O2 for 24 h, or 2 μM A[…]42 peptide for 48 h prior to viability/cytotoxicity assay. For drug co-treatment with free radicals, rat cortical neurons (DIV5) were treated with 1 μM of dextran, alginate, or midi-GAGR, 0.01 μM of HA-GAGR, or 0.1 μM of LA-GAGR along with either 10 μM 4HNE (24 h) or 2 μM Aβ42 peptide (48 h). To examine the extent to which midi-GAGR-mediated neuroprotection depends on FGFR1, rat cortical neurons (E17, DIV5) were pre-treated with 4 μM SU5402 (Sigma) for 6 h and treated with 10 μM 4HNE and either vehicle or 1 μM midi-GAGR for 24 h prior to cell viability/cytotoxicity assay. As controls, neurons were treated with SU5402, midi-GAGR, 4HNE, 4HNE plus midi-GAGR, or SU5402 plus midi-GAGR.
For cell viability/cytotoxicity measurement, neurons on glass coverslips were incubated in 1×PBS containing 2 μM calcein AM (live cells: green) and 4 μM ethidium homodimer-1 (dead cells: red) for 10 min at 37° C. Immediately thereafter, neurons were imaged by 10×objective using a fluorescence Olympus IX71 microscope (Olympus America Inc., Center Valley, Pa.) and, for the acquisition of high-quality images, using TCS SP5 multi-photon laser scanning confocal microscope.
Midi-GAGR attenuated neurite atrophy caused by free reactive radicals. It is now shown herein that midi-GAGR protect neurons from the death caused by free radical insults. The extent to which midi-GAGR protects the primary culture of rodent cortical neurons from 4HNE and H2O2 was determined. In addition to the radicals, amyloid β peptide (Aβ42) was also tested. Aβ42 peptide is a major causative factor that causes oxidative stress and neuron death. Mouse cortical neurons (E17, DIV5) were treated with 10 μM 4HNE (24 h), 50 μM H2O2 (24 h), or 2 μM Aβ42 peptide (48 h) after the treatment of the neurons with vehicle (H2O), midi-GAGR (1 μM), dextran (1 μM), alginate (1 μM), LA-GAGR (0.1 μM), or HA-GAGR (0.01 μM) for 24 h. The concentrations of 4HNE, H2O2, and Aβ42 peptide were chosen according to their patho-physiological concentrations. The concentrations of LA-GAGR and HA-GAGR were chosen because, within the same volume, the total numbers of sugar units in the polysaccharides at the concentrations are close to that of 1 μM midi-GAGR. The viability of neurons was assessed using LIVE/DEAD® Viability/Cytotoxicity Assay Kit in which membrane-permeant calcein AM is cleaved by esterase in live cells, thus yielding green fluorescence, and membrane-impermeant ethidium homodimer-1 stains the nucleic acids of plasma membrane-compromised cells with red fluorescence. The numbers of green (live) and red (dead) neurons in each condition were counted using Metamorph. Although the intensities of green fluorescent signals in neurons treated with either free radicals or Aβ42 peptide were weak, the neurons were included in the counting. About 8-9% of vehicle-treated neurons died during the process of live/dead cell assay (FIGS. 23A-23F, FIGS. 24A-24C).

dextran
6-OHDA-induced cell death [1]: did not | increase of the levels of nuclear p-CREB [2]: not significantly increased | increase of the levels of nuclear p-CREB [3]: not significantly increased | neuron death after Aβ42 peptide ([4]; 2 μM Aβ42 48 h, vehicle about 30%): did not decrease | neuron death after H2O2 ([4]; 50 μM H2O2 24 h, vehicle ~25%): did not reduce
